Patent US20080214669A1, “Composition and Method For Treating Hyperpigmented Skin” (LIPO CHEMICALS INC., priority 2005, published 2008)

Key:
[1] = clinical study of skin brightening efficacy and skin redness (chromameter readings); type: in vivo, human; settings: emulsion 0.3% by weight
Description: The skin brightening efficacy of p-HCA in ethoxydyglycol versus kojic acid also was tested in a clinical study. In this study, an emulsion containing 0.3%, by weight, p-HCA or kojic acid was used on twenty, mostly female, subjects between the ages of 30 to 50 years. The test composition was applied to the abdomen twice daily (a.m. and p.m.). The test was conducted for eight weeks, and chromameter readings were taken at baseline, and after 2, 4, 6, and 8 weeks.

[2] = solubility of p-HCA in solvents / hydroxy-containing compounds (HPLC); type: physicochemical
Description: Various solvents were tested for an ability to dissolve p-HCA and provide a suitable composition for topical application to efficaciously treat hyperpigmentation. p-HCA was added to various solvents, then sonicated for two hours at 35° C. until no further HCA was dissolved. The samples were cooled to room temperature (25° C.) and allowed to stabilize for 15 hours. The undissolved p-HCA was allowed to settle, the supernatant liquid was filtered, and diluted with the HPLC mobile phase for assay. All samples were analyzed by HPLC on a Hypersil ODS C18 column using water, methanol, glacial acetic acid (55:45:1) as the mobile phase. The flow rate was 1 ml/min and the wavelength for detection was 270 nm. […] p-Hydroxycinnamic acid was added to the hydroxy-containing compound and sonicated until no further p-HCA dissolved after two hours of sonication at 35° C. The test sample was cooled to room temperature, then stabilized for 15 hours. After the p-HCA was allowed to settle, the supernatant was filtered through a 0.2 micron syringe filter. Approximately 0.08 g of this filtered material was weighed into a 25 ml volumetric flask and diluted to volume with HPLC mobile phase. Two standards were analyzed by HPLC and compared to the two samples. The HPLC assay was identical to the HPLC assay discussed above.

skin enzymes = assay: metabolism of p-HCA in homogenized human skin; type: in vitro ADME; settings: human skin homogenate in PBS-ethanol, 37° C., eight hours of incubation
Description: First, to confirm in vivo activity of p-HCA, the metabolism of p-HCA in the skin was determined. In this test, human skin was homogenized in a PBS (phosphate-buffered saline)-ethanol solution, followed by dissolution of p-HCA. The solution was incubated at 37° C. for 8 hours. Samples were taken after 0, 4, and 8 hours, and were centrifuged. The supernatant was filtered and analyzed by HPLC. […] The amount of p-HCA that is metabolized was considered insignificant with respect to an efficacious treatment of hyperpigmentation.

[3] = skin penetration, Franz diffusion cells; type: in vitro ADME, human
Description: In another experiment, a 10% solution of p-HCA in ethoxydiglycol first was prepared. This solution was added to a skin care emulsion in a sufficient amount to provide either 0.3% or 0.1%, by weight, of p-HCA in the final composition. As a comparative example, 0.3%, by weight, of solid p-HCA was added to the same skin care emulsion. The skin care emulsion to which solid p-HCA or the p-HCA solution was added had the following formula (w/w %): • 85.35 water • 0.2 methylparaben • 0.35 xanthan gum • 5.0 butylene glycol • 4.0 sesame oil • 2.5 glyceryl stearate
The skin care emulsions containing p-HCA were applied to cadaver skin. Skin penetration of p-HCA was studied using Franz diffusion cells, n=5 (Permegear, Bethlehem, Pa.). The receptor contained an isotonic phosphate buffer with 30% ethanol, and was stirred continuously at 600 rpm. Samples of dermatomed human cadaver skin (NDRA, Philadelphia) were placed on the cells and prehydrated for 1 hour prior to the experiment. One milliliter of each formulation was added to the donor compartment of each cell, which was covered tightly with PARAFILM®. Samples (300 μl) were withdrawn from the receptor compartment every hour over 8 hours, and replaced with 300 μl of fresh receptor solution. After 8 hours, the skin was removed and cut into small pieces. The skin pieces were homogenized using a Kinematica POLYTRON® homogenizer and centrifuged. The supernatant was filtered through 0.22μ filters, and the p-HCA content was quantified.
All samples were analyzed by HPLC on a Hypersil ODS C18 column using water, methanol, glacial acetic acid (55:45:1) as the mobile phase at a flow rate of 1 ml/min and detection at 270 nm. Lag time and flux were obtained from permeation profiles and skin drug content also was recorded.
The following formula was tested for skin penetration: • Water 28.1% (by wt); • Carbopol 981 (2%) 17.0%; • Ethanol SDA 40b-190 53.0%; • Glycerin 1.0%; • Triethanolamine 0.4%; • p-Hydroxycinnamic acid 0.5%.
The method used to determine skin permeability was the Franz diffusion method disclosed above. […] In particular, 3.9 mcg/ml of p-HCA was found in the receptor compartment of the skin (i.e., permeated through the skin) as opposed to 16.3 mcg/ml p-HCA found within the skin.

[4] = hydroethanolic Carbopol gel formula with 0.5% p-hydroxycinnamic acid
[5] = in presence of ethoxydiglycol vs powder form

| skin redness ([1]; weeks 4 and 8) | solubility ([2]; 30% hydroethanolic solution) [wt %] | solubility ([2]; Ethanol) [wt %] | solubility ([2]; PEG-8) [wt %] | solubility ([2]; butylene glycol) [wt %] | solubility ([2]; glycereth-26) [wt %] | solubility ([2]; pentylene glycol) [wt %] | solubility ([2]; silicone fluid DC 193) [wt %] | p-HCA metabolized (skin enzymes) [%] | amount deposited in the skin relative to amount transmitted through the skin [3, 4] | p-HCA found in the receptor compartment (permeated through the skin) [3, 4] [µg/mL] | elevation of percent p-HCA that permeates cadaver skin [3, 5] [%] | elevation of percentage of p-HCA that remained within the skin [3, 5] | Compound | skin redness ([1]; throughout the eight-week clinical trial) |
| --- | --- | --- | --- | --- | --- | --- | --- | --- | --- | --- | --- | --- | --- | --- |
| induced redness |  |  |  |  |  |  |  |  |  |  |  |  | O=c1cc(CO)occ1O [kojic acid] | did not reduce redness |
|  | 0.75 | 14.8 | 5.4 | 2.25 | 7 | 1.75 | 4.7 | 3.6 | four times greater | 3.9 | 43 | about 50% | O=C(O)C=Cc1ccc(O)cc1 [p-HCA, p-hydroxycinnamic acid] |  |
